Assay results as given in patent US6500840B2, “Quinuclidine-substituted heteroaryl moieties for treatment of disease” (Pharmacia & Upjohn Company, priority 2000, dated 2002).
Values joined by “and” are separate entries in the source; they are usually repeats but may differ in a detail not shown here. Equal values may be shown once. Where a name gives a salt, the structure may show the parent alone.

These compounds were tested against α7 nAChR (Rattus norvegicus, UniProt Q05941) (assay: [3H]-MLA competition binding assay, rat brain membranes). Conditions: Ki, inhibition of [3H]-MLA binding (3.0 to 4.0 nM), Sprague-Dawley rat whole brain minus cerebellum homogenate, 1 hour at 25° C.
Sequence of α7 nAChR (Q05941 23-502): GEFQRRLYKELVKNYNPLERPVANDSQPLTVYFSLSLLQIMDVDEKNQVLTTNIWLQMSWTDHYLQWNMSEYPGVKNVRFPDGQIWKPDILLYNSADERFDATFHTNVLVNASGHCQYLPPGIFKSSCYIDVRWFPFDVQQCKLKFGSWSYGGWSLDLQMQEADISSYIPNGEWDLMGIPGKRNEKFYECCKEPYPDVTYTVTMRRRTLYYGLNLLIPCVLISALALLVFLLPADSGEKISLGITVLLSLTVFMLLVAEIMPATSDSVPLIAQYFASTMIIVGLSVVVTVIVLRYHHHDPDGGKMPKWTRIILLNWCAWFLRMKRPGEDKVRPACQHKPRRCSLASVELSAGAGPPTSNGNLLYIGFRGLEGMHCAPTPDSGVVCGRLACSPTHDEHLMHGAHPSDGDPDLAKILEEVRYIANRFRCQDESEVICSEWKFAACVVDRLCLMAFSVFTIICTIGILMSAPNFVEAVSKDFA
Protocol: Membrane Preparation. Male Sprague-Dawley rats (300-350 g) are sacrificed by decapitation and the brains (whole brain minus cerebellum) are dissected quickly, weighed and homogenized in 9 volumes/g wet weight of ice-cold 0.32 M sucrose using a rotating pestle on setting 50 (10 up and down strokes). The homogenate is centrifuged at 1,000×g for 10 minutes at 4° C. The supernatant is collected and centrifuged at 20,000×g for 20 minutes at 4° C. The resulting pellet is resuspended to a protein concentration of 1-8 mg/mL. Aliquots of 5 mL homogenate are frozen at −80° C. until needed for the assay.
Binding Assay. […] Filters are pre-soaked in 50 mm Tris HCl pH 7.0-0.05% polyethylenimine. The filters are rapidly washed two times with 5 mL aliquots of cold 0.9% saline and then counted for radioactivity by liquid
Data Analysis. […] Hill coefficients were obtained using non-linear regression (GraphPad Prism sigmoidal dose-response with variable slope).
Work on `CC1C(NC(=O)c2ccc(Br)s2)C2CCN1CC2` (mixture of isomers) [Example 158, 5-Bromo-N-(2-methyl-1-azabicyclo[2.2.2]oct-3-yl)thiophene-2-carboxamide 4-Methylbenzenesulfonate] yielded a Ki of 0.012 to 0.02 µM.
`O=C(N[C@H]1CN2CCC1CC2)c1ccc(-c2cc3ccccc3o2)o1` [Example 146, N-[(3R)-1-azabicyclo[2.2.2]oct-3-yl]-5-(1-benzofuran-2-yl)-furan-2-carboxamide 4-methylbenzenesulfonate] gave a Ki of 0.035 to 0.14 µM.
Work on `Cc1ccc(-c2ccc(C(=O)N[C@H]3CN4CCC3CC4)s2)s1` [Example 14, N-[(3R)-1-Azabicyclo[2.2.2]oct-3-yl]-5′-methyl-2,2′-bithiophene-5-carboxamide Hydrochloride] yielded a Ki of 0.012 to 0.016 µM.
For `Nc1ccccc1-c1ccc(C(=O)N[C@H]2CN3CCC2CC3)o1` [Example 147, 5-(2-Aminophenyl)-N-[(3R)-1-azabicyclo[2.2.2]oct-3-yl]-furan-2-carboxamide bis(4-Methylbenzenesulfonate)], the Ki was 0.002 to 0.003 µM.
Compound `O=C(N[C@H]1CN2CCC1CC2)c1ccc(C#Cc2ccccc2)o1` [Example 150, N-[(3R)-1-Azabicyclo[2.2.2]oct-3-yl]-5-(phenylethynyl)-furan-2-carboxamide 4-Methylbenzenesulfonate] has a Ki of 0.29 to 0.33 µM.
`Cc1cnc(C(=O)N[C@H]2CN3CCC2CC3)s1` [Example 98, N-[(3R)-1-azabicyclo[2.2.2]oct-3-yl]-5-methyl-1,3-thiazole-2-carboxamide 4-methylbenzenesulfonate] showed a Ki of 0.05 to 0.08 µM.
With `O=C(N[C@H]1CN2CCC1CC2)c1ccc(-c2cccc(F)c2)o1` [Example 114, N-[(3R)-1-azabicyclo[2.2.2]oct-3-yl]-5-(3-fluorophenyl)-furan-2-carboxamide 4-methylbenzenesulfonate] the Ki was 0.135 µM.
For `Cc1ccc(C(=O)N[C@H]2CN3CCC2CC3)s1` [Example 25, N-[(3R)-1-azabicyclo[2.2.2]oct-3-yl]-5-methyl-thiophene-2-carboxamide], the Ki was 0.01 to 0.015 µM.
In the case of `O=C(N[C@H]1CN2CCC1CC2)c1ccc(-c2ccccc2C(F)(F)F)o1` [Example 108, N-[(3R)-1-azabicyclo[2.2.2]oct-3-yl]-5-[2-(trifluoromethyl)-phenyl]-furan-2-carboxamide fumarate], the Ki is reported as 0.415 to 0.56 µM.
In the case of `O=C(N[C@H]1CN2CCC1CC2)c1ccc(Oc2ccccc2)s1` [Example 40, N-[(3R)-1-Azabicyclo[2.2.2]oct-3-yl]-5-phenoxy-thiophene-2-carboxamide Hydrochloride], the Ki is reported as 0.012 to 0.016 µM.
In the case of `O=C(N[C@H]1CN2CCC1CC2)c1cnc(-c2ccccc2)s1` [Example 50, N-[(3R)-1-Azabicyclo[2.2.2]oct-3-yl]-2-phenyl-1,3-thiazole-5-carboxamide Fumarate], the Ki is reported as 0.068 to 0.564 µM.
With `O=C(N[C@H]1CN2CCC1CC2)c1ncc(-c2cccc([N+](=O)[O-])c2)o1` [Example 81, N-[(3R)-1-azabicyclo[2.2.2]oct-3-yl]-5-(3-nitrophenyl)-1,3-oxazole carboxamide 4-methylbenzenesulfonate] the Ki was 0.055 to 0.175 µM.
`O=C(N[C@H]1CN2CCC1CC2)c1ncc(-c2ccccc2)o1` [Example 153, N-[(3R)-1-azabicyclo[2.2.2]oct-3-yl]-5-phenyl-1,3-oxazole-2-carboxamide 4-methylbenzenesulfonate] gave a Ki of 1.55 µM.
`O=C(N[C@H]1CN2CCC1CC2)c1ccc(-c2cc(F)ccc2F)o1` [Example 117, N-[(3R)-1-azabicyclo[2.2.2]oct-3-yl]-5-(2,5-difluorophenyl)-furan-2-carboxamide hydrochloride] was tested, and the Ki was 1.86 µM.
`O=C(N[C@H]1CN2CCC1CC2)c1ccc(-c2cccc(OC(F)(F)F)c2)o1` [Example 120, N-[(3R)-1-azabicyclo[2.2.2]oct-3-yl]-5-[3-(trifluoromethoxy)phenyl]-furan-2-carboxamide 4-methylbenzenesulfonate] was tested, and the Ki was 1.05 µM.
Work on `O=C(N[C@H]1CN2CCC1CC2)c1ccc(-c2ccc(Cl)cc2)s1` [Example 2, N-[(3R)-1-azabicyclo[2.2.2]oct-3-yl]-5-(4-clorophenyl)-thiophene-2-carboxamide hydrochloride] yielded a Ki of 0.11 µM.
Work on `O=C(N[C@H]1CN2CCC1CC2)c1nc(-c2ccccc2)no1` [Example 154, N-[(3R)-1-azabicyclo[2.2.2]oct-3-yl]-3-phenyl-1,2,4-oxadiazole-5-carboxamide 4-methylbenzenesulfonate] yielded a Ki greater than 1 µM.
`Cc1nc(C(=O)N[C@H]2CN3CCC2CC3)sc1-c1ccccc1` [Example 89, N-[(3R)-1-Azabicyclo[2.2.2]oct-3-yl]-4-methyl-5-phenyl-1,3-thiazole-2-carboxamide 4-Methylbenzenesulfonate] gave a Ki of 0.31 to 0.4 µM.
With `O=C(N[C@H]1CN2CCC1CC2)c1ccc(-c2cc3ccccc3s2)o1` [Example 141, N-[(3R)-1-azabicyclo[2.2.2]oct-3-yl]-5-(1-benzothien-2-yl)-furan-2-carboxamide 4-methylbenzenesulfonate] the Ki was 0.26 to 0.275 µM.
In the case of `O=C(N[C@H]1CN2CCC1CC2)c1ccc(-c2ccc(Cl)cc2)o1` [Example 106, N-[(3R)-1-azabicyclo[2.2.2]oct-3-yl]-5-(4-chlorophenyl)-furan-2-carboxamide fumarate], the Ki is reported as 0.015 to 0.19 µM and 0.022 to 0.11 µM.
Compound `O=C(N[C@H]1CN2CCC1CC2)c1ccc(Sc2ccccc2)s1` [Example 27, N-[(3R)-1-azabicyclo[2.2.2]oct-3-yl]-5-(phenylsulfanyl)-thiophene-2-carboxamide] has a Ki of 0.035 to 0.16 µM.
In the case of `O=C(N[C@H]1CN2CCC1CC2)c1ccc([N+](=O)[O-])s1` [Example 16, N-[(3R)-1-Azabicyclo[2.2.2]oct-3-yl]-5-nitro-thiophene-2-carboxamide Hydrochloride], the Ki is reported as 0.003 to 0.008 µM.
For `O=C(N[C@H]1CN2CCC1CC2)c1ncc(-c2ccccc2[N+](=O)[O-])o1` [Example 83, N-[(3R)-1-azabicyclo[2.2.2]oct-3-yl]-5-(2-nitrophenyl)-1,3-oxazole-2-carboxamide 4-methylbenzenesulfonate], the Ki was 0.002 to 0.003 µM.
Work on `COc1ccccc1-c1ccc(C(=O)N[C@H]2CN3CCC2CC3)o1` [Example 118, N-[(3R)-1-azabicyclo[2.2.2]oct-3-yl]-5-(2-methoxyphenyl)-furan-2-carboxamide 4-methylbenzenesulfonate] yielded a Ki of 0.045 to 0.069 µM.
In the case of `O=C(N[C@H]1CN2CCC1CC2)c1ncc(-c2ccccc2Cl)o1` [Example 86, N-[(3R)-1-azabicyclo[2.2.2]oct-3-yl]-5-(2-chlorophenyl)-1,3-oxazole-2-carboxamide 4-methylbenzenesulfonate], the Ki is reported as 0.03 to 0.04 µM.
`O=C(N[C@H]1CN2CCC1CC2)c1ccc(-c2cccc(OCc3ccccc3)c2)s1` [Example 9, N-[(3R)-1-azabicyclo[2.2.2]oct-3-yl]-5-(3-benzyloxyphenyl)-thiophene-2-carboxamide hydrochloride] gave a Ki of 0.54 to 0.57 µM.
With `O=C(N[C@H]1CN2CCC1CC2)c1ncc(-c2cccc(Cl)c2)o1` [Example 79, N-[(3R)-1-Azabicyclo[2.2.2]oct-3-yl]-5-(3-chlorophenyl)-1,3-oxazole-2-carboxamide 4-Methylbenzenesulfonate] the Ki was 0.02 to 0.075 µM.
`COc1ccccc1-c1cnc(C(=O)N[C@H]2CN3CCC2CC3)o1` [Example 84, N-[(3R)-1-azabicyclo[2.2.2]oct-3-yl]-5-(2-methoxyphenyl)-1,3-oxazole-2-carboxamide 4-methylbenzenesulfonate] showed a Ki of 1.1 to 1.49 µM.
Work on `O=C(N[C@H]1CN2CCC1CC2)c1ncc(-c2ccccc2)s1` [Example 90, N-[(3R)-1-azabicyclo[2.2.2]oct-3-yl]-5-phenyl-1,3-thiazole-2-carboxamide] yielded a Ki of 0.08 to 0.15 µM.
With `O=C(N[C@H]1CN2CCC1CC2)c1cnc(-c2ccccc2O)s1` [Example 55, N-[(3R)-1-azabicyclo[2.2.2]oct-3-yl]-2-(2-hydroxyphenyl)-1,3-thiazole-5-carboxamide hydrochloride] the Ki was 0.06 to 0.07 µM.
Compound `O=C(N[C@H]1CN2CCC1CC2)c1ccc(-c2ccccc2[N+](=O)[O-])o1` [Example 110, N-[(3R)-1-azabicyclo[2.2.2]oct-3-yl]-5-(2-nitrophenyl)-furan-2-carboxamide 4-methylbenzenesulfonate] has a Ki of 0.004 to 0.19 µM.
`O=C(N[C@H]1CN2CCC1CC2)c1ccc(-c2cccc(C(F)(F)F)c2)o1` [Example 109, N-[(3R)-1-azabicyclo[2.2.2]oct-3-yl]-5-[3-(trifluoromethyl)-phenyl]-furan-2-carboxamide fumarate] showed a Ki of 0.0015 to 0.006 µM.
`N#Cc1ccc(C(=O)N[C@H]2CN3CCC2CC3)s1` [Example 18, N-[(3R)-1-Azabicyclo[2.2.2]oct-3-yl]-5-cyano-thiophene-2-carboxamide Hydrochloride] showed a Ki of 0.24 to 0.29 µM.
For `O=C(N[C@H]1CN2CCC1CC2)c1ccc(-c2ccccc2)o1` [Example 103, N-[(3R)-1-Azabicyclo[2.2.2]oct-3-yl]-5-phenyl-furan-2-carboxamide 4-Methylbenzenesulfonate], the Ki was 0.017 to 0.05 µM.
Work on `CSc1ccc(C(=O)N[C@H]2CN3CCC2CC3)s1` [Example 22, N-[(3R)-1-Azabicyclo[2.2.2]oct-3-yl]-5-(methylsulfanyl)-thiophene-2-carboxamide] yielded a Ki of 0.001 to 0.006 µM.
With `O=C(N[C@H]1CN2CCC1CC2)c1ccc(-c2ccc(Cl)s2)s1` [Example 15, N-[(3R)-1-Azabicyclo[2.2.2]oct-3-yl]-5′-chloro-2,2′-bithiophene-5-carboxamide Hydrochloride] the Ki was 0.04 to 0.09 µM.
`O=C(N[C@H]1CN2CCC1CC2)c1ccc(-c2cc(F)cc(F)c2)o1` [Example 133, N-[(3R)-1-azabicyclo[2.2.2]oct-3-yl]-5-(3,5-difluorophenyl)-furan-2-carboxamide hydrochloride] showed a Ki of 0.03 to 0.07 µM.
`Cc1cc(C(=O)N[C@H]2CN3CCC2CC3)oc1C` [Example 128, N-[(3R)-1-azabicyclo[2.2.2]oct-3-yl]-4,5-dimethyl-furan-2-carboxamide hydrochloride] gave a Ki of 0.006 to 0.007 µM.
For `O=C(N[C@H]1CN2CCC1CC2)c1ccc(-c2cccc(Cl)c2)o1` [Example 105, N-[(3R)-1-azabicyclo[2.2.2]oct-3-yl]-5-(3-chlorophenyl)-furan-2-carboxamide toluene sulfonate], the Ki was 0.09 µM.
`O=C(N[C@H]1CN2CCC1CC2)c1cnc(-c2cccc(F)c2)s1` [Example 53, N-[(3R)-1-azabicyclo[2.2.2]oct-3-yl]-2-(3-fluorophenyl)-1,3-thiazole-5-carboxamide 4-methylbenzenesulfonate] showed a Ki of 1.9 to 1.97 µM.
